Experimental data published in US9642839B2, “Substance having tyrosine kinase inhibitory activity and preparation method and use thereof” (Institute of Radiation Medicine, China Academy of Military …, priority 2013, dated 2017).

Experiments:
[1] = tested on: L02 cells; assay: MTS cell proliferation, normal liver cells; type: cell-based; settings: Homo sapiens, L02, normal hepatic cells, 72 hours
Procedure: […] After culture at 37° C., 5% CO2 for 72 hours, MTS reagent (Promega Corporation) were added for further culture for 2-4 h.

[2] = tested on: HepG2 cells; assay: Subcutaneous tumor-bearing nude mice model; type: in vivo; settings: HepG2 s.c. nude mice; 16 mg/kg intraperitoneal, once every 24 h, 6 administrations; by tumor weight
Source text: (§1) The cells were washed with PBS twice, and suspended.

[3] = tested on: NCI-H460 cells; assay: Subcutaneous tumor-bearing nude mice model; type: in vivo; settings: NCI-H460 s.c. nude mice; 16 mg/kg intraperitoneal, once every 24 h, 6 administrations; by tumor weight
Source text: as §1

[4] = tested on: SK-N-SH cells; assay: In vitro antitumor activity, MTS cell proliferation; type: cell-based; settings: Homo sapiens, neuroblastoma, 72 hours
Procedure: (§2) Method: 14 cell lines (MKN-45 cells, MHCC97-L cells, MHCC97-H cells, HLE cells, HepG2 cells, 7721 cells, L02 cells, A375 cells, H460 cells, A549 cells, SK-N-SH cells, MCF-7 cells, K562 cells, and Ba/F3-Tpr-Met cells (pre-B cells which are malignantly transformed by the c-Met constitutive active mutant Tpr-Met) were seeded into 96-well plate at 1×10^4 cells/well, and each well was added with 150 μl DMEM medium (purchased from Invitrogen) containing 10% fetal bovine serum (purchased from Hyclone). When cell adherent was observed, different concentrations of 2-indolone derivatives (concentrations at 0.1-10 μM) were added, in addition to the negative control (vehicle control group) and blank control (medium group). After culture at 37° C., 5% CO2 for 72 hours, MTS reagent (Promega Corporation) were added for further culture for 2-4 h.

[5] = tested on: MHCC97-L cells; assay: as above; type: cell-based; settings: MHCC97L, hepatocellular cancer, 72 hours
Procedure: as §2

[6] = tested on: HepG2 cells; assay: as above; type: cell-based; settings: Homo sapiens, HepG2, hepatocellular cancer, 72 hours
Procedure: as §2

[7] = tested on: HLE cells; assay: as above; type: cell-based; settings: Homo sapiens, hepatocellular cancer, 72 hours
Procedure: as §2

[8] = tested on: MCF-7 cells; assay: as above; type: cell-based; settings: Homo sapiens, MCF7, MCF-7, breast cancer, 72 hours
Procedure: as §2

[9] = tested on: K562 cells; assay: as above; type: cell-based; settings: Homo sapiens, K562, leukemia, 72 hours
Procedure: as §2

[10] = tested on: A375 cells; assay: as above; type: cell-based; settings: Homo sapiens, A-375, A375, skin cancer, 72 hours
Procedure: as §2

[11] = tested on: Ba/F3-Tpr-Met cells; assay: as above; type: cell-based; settings: pre-B cell, 72 hours
Procedure: as §2

[12] = tested on: MKN-45 cells; assay: as above; type: cell-based; settings: Homo sapiens, MKN-45, gastric cancer, 72 hours
Procedure: as §2

[13] = tested on: H460 cells; assay: as above; type: cell-based; settings: Homo sapiens, NCI-H460, H460, lung cancer, 72 hours
Procedure: as §2

[14] = tested on: c-Met; settings: MHCC97-H cells, 2 μM versus 1 μM SU11274
Procedure: The medium was changed once every 1-2 days. […] The supernatant was discarded, and fresh medium was added for subculture.
SU11274 (purchased from Sigma) is a specific c-Met kinase inhibitor which may block activation of c-Met. […] After incubation with the compounds for 2 h, the cells were harvested and total protein was extracted. Western blot assay was carried out with c-Met phosphorylated and non-phosphorylated antibodies, ERK phosphorylated and non-phosphorylated antibodies, Akt phosphorylated and non-phosphorylated antibodies (all purchased from Cell Signaling), and GAPDH antibody (purchased from Santa Cruz).

[15] = target: TrkB (Homo sapiens, UniProt Q16620); assay: Western blot, BDNF-induced TrkB phosphorylation and signaling pathway in SK-N-SH cells; type: cell-based; settings: 0.05-1.0 μM, 200 ng/ml BDNF
TrkB, sequence (Q16620 32-822, species assumed): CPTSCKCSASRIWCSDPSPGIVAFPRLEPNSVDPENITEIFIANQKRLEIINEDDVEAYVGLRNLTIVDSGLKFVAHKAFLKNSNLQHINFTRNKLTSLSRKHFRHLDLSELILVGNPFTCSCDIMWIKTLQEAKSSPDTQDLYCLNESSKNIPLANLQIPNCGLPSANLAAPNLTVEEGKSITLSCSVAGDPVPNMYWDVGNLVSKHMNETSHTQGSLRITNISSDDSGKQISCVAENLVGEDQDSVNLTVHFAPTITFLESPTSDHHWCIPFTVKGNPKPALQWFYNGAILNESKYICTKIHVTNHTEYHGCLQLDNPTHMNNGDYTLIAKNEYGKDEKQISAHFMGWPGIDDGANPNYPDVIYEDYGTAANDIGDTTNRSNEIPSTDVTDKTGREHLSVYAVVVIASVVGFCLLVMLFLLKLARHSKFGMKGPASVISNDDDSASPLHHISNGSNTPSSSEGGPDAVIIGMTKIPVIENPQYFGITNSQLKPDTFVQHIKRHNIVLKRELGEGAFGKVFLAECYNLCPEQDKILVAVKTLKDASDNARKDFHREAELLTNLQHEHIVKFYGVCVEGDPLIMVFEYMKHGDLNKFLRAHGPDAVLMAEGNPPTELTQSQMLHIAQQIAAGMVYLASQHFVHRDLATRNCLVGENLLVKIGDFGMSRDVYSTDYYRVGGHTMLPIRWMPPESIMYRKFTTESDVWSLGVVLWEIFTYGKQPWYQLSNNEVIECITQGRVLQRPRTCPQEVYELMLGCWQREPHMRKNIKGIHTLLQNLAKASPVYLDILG
Procedure: The medium was changed once every 1-2 days. […] 500 ng/mL NGF or 200 ng/ml BDNF (if not added, marked as “-”) were added to stimulate the cells for 5 min. After cell lysis, total protein was extracted. Western blot assay was carried out with TrkA phosphorylated and non-phosphorylated (p-TrkA) antibodies, TrkB phosphorylated and non-phosphorylated (p-TrkB) antibodies, ERK phosphorylated and non-phosphorylated (p-ERK) antibodies, Akt phosphorylated and non-phosphorylated (p-Akt) antibodies, and GAPDH antibody.

[16] = tested on: A549 cells; assay: In vitro antitumor activity, MTS cell proliferation; type: cell-based, human; settings: Homo sapiens, A549, lung cancer, 72 hours
Procedure: as §2

[17] = tested on: MHCC97-H cells; assay: as above; type: cell-based, human; settings: Homo sapiens, MHCC97H, hepatocellular cancer, 72 hours
Procedure: as §2

[18] = tested on: MHCC-97H cells; assay: Liver orthotopic tumor model; type: in vivo, nude mice; settings: for Tumor inhibition rate / Weight of tumor: 6 administrations; for Average weight (X ± S), End: animal weight at end, in g (unit assumed)
Source text: The medium was changed once every 1-2 days. […] The subcultured tumor cells were digested under a sterile condition and resuspended with sodium chloride injection, and subcutaneously inoculated at the right flank of nude mice. When the subcutaneous tumors in the nude mice grew to a volume about 1,500-2,000 mm^3, the tumor mass was removed under a sterile condition, and cut into pieces in a size about 1.0×1.0 mm for future use. Then the nude mice to be inoculated were anesthetized and fixed on the operating table. The abdominal skin was disinfected, and an incision about 1 cm was made in the left upper abdomen to expose the liver, with the surgical site covered. The prepared tumor piece was placed into a dedicated inoculation trocar, and was implanted into the liver by using the trocar. The bleeding site of the wound was treated with sterilized gauze or sterilized cotton swab to stop the bleeding. Then liver which underwent surgery was placed back into the abdominal cavity of mice. The abdominal muscles and skin were sutured with 4/0 gauge surgical needle sequentially. After normal feeding of the mice for 2 weeks, size of liver tumor was observed under B-ultrasound.
Method: Animal models were randomized into vehicle control group, intraperitoneal low dose group (18 mg/kg), intraperitoneal high dose group (36 mg/kg), and gavage group (36 mg/kg), with 9 mice each group. The mice received treatment once every 24 hours. Intraperitoneal administration was done by intraperitoneal injection. The vehicle control group received DMSO injected intraperitoneally. Six times of administration were given. After the last administration, animals were kept for another 3 weeks, then sacrificed by cervical dislocation, and dissected to obtain liver. Visible tumor was dissected and weighed.

[19] = intraperitoneal high dose 36 mg/kg
[20] = intraperitoneal low dose 18 mg/kg

Cc1ccccc1NS(=O)(=O)c1ccc2c(c1)/C(=C/c1nc3ccccc3[nH]1)C(=O)N2 [Indo 5, 3-(1H-benzimidazol-2-methylene)-5-(2-methylphenylaminosulfo)-2-indolone]
IC50 [1]: 20900 nM
Tumor inhibition rate [2]: 61%
Tumor inhibition rate [3]: 59%
IC50 [4]: 1190 nM
IC50 [5]: 1210 nM
IC50 [6]: 5660 nM
IC50 [7]: 5230 nM
IC50 [8]: 1280 nM
IC50 [9]: 2580 nM
IC50 [10]: 1870 nM
IC50 [11]: 4790 nM
IC50 [12]: 1550 nM
IC50 [13]: 1070 nM
Inhibitory effect on c-Met phosphorylation versus positive control [14]: comparable to the positive control SU11274
Phosphorylation of TrkB and downstream ERK and Akt [15]: significantly inhibited
IC50 [16]: 2190 nM
IC50 [17]: 1030 nM
Tumor inhibition rate ([18]; gavage (PO) 36 mg/kg): 62.2%
Weight of tumor ([18]; gavage (PO) 36 mg/kg): 0.401 ± 0.530 g
Average weight (X ± S), End ([18]; gavage (PO) 36 mg/kg): 21.01 ± 3.41
Tumor inhibition rate [18, 19]: 62.4%
Weight of tumor [18, 19]: 0.399 ± 0.486 g
Disappearance of liver tumor at end of experiment ([18]; intraperitoneal high dose 36 mg/kg, 9 animals): Liver cancer was gone in one animal
Average weight (X ± S), End [18, 19]: 21.18 ± 1.44
Tumor inhibition rate [18, 20]: 55.5%
Weight of tumor [18, 20]: 0.473 ± 0.497 g
Average weight (X ± S), End [18, 20]: 20.61 ± 2.33
